# Results published in PubChem BioAssay AID256 (DTP/NCI, 2004).
# Several values for one entry are separate records, joined by “and”; a condition that tells them apart may be missing. Identical values can stand only once. Inconclusive results and toxic doses are left out.
# System: CD2F1 mice, L1210 leukemia ip, survival T/C
# Experiment: NCI In Vivo Anticancer Drug Screen. Data for tumor model L1210 Leukemia (intraperitoneal) in CD2F1 (CDF1) mice
# Settings: higher = longer survival
# In short: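 In this screen, transplantable tumors were grown in mice given either the compound or its vehicle. Results were expressed as the treated measurement relative to the control measurement.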
# [1] = endpoint: mean survival time, dose: 100.0 mg/kg/injection, schedule: Q01DX001 (ip), vehicle: saline with Tween-80
# [2] = endpoint: mean survival time, dose: 100.0 mg/kg/injection, schedule: Q04DX003 (ip), vehicle: saline with Tween-80
# [3] = endpoint: mean survival time, dose: 200.0 mg/kg/injection, schedule: Q01DX001 (ip), vehicle: saline with Tween-80
# [4] = endpoint: mean survival time, dose: 200.0 mg/kg/injection, schedule: Q04DX003 (ip), vehicle: saline with Tween-80
# [5] = endpoint: mean survival time, dose: 400.0 mg/kg/injection, schedule: Q01DX001 (ip), vehicle: saline with Tween-80
# [6] = endpoint: mean survival time, dose: 400.0 mg/kg/injection, schedule: Q04DX003 (ip), vehicle: saline with Tween-80
compound,measurement,setting,value
CC(=O)N(/C=C\C=C\c1sc2ccccc2[n+]1C)c1ccccc1,T/C,"endpoint: mean survival time, dose: 12.5 mg/kg/injection, schedule: Q01DX009 (ip), vehicle: other",108 % of control
same,T/C,"endpoint: mean survival time, dose: 25.0 mg/kg/injection, schedule: Q01DX009 (ip), vehicle: other",115 % of control
CCCCCCCCCCCCNC(=O)c1ccc[n+](Cc2ccc(Cl)c(Cl)c2)c1,T/C,"endpoint: mean survival time, dose: 12.5 mg/kg/injection, schedule: Q01DX009 (ip), vehicle: saline with Tween-80",98 % of control
same,T/C,"endpoint: mean survival time, dose: 12.5 mg/kg/injection, schedule: Q04DX003 (ip), vehicle: saline sonified",98 % of control
same,T/C,"endpoint: mean survival time, dose: 25.0 mg/kg/injection, schedule: Q04DX003 (ip), vehicle: saline sonified",98 % of control
same,T/C,"endpoint: mean survival time, dose: 50.0 mg/kg/injection, schedule: Q04DX003 (ip), vehicle: saline sonified",95 % of control
CC(=O)c1ccc([NH-])c([NH-])c1.[Cl][Pt+2][Cl],T/C,"endpoint: mean survival time, dose: 2.5 mg/kg/injection, schedule: Q01DX009 (ip), vehicle: distilled water + Tween-80",102 % of control
same,T/C,"endpoint: mean survival time, dose: 5.0 mg/kg/injection, schedule: Q01DX009 (ip), vehicle: distilled water + Tween-80",104 % of control
same,T/C,"endpoint: mean survival time, dose: 10.0 mg/kg/injection, schedule: Q01DX009 (ip), vehicle: distilled water + Tween-80",109 % of control and 112 % of control
same,T/C,"endpoint: mean survival time, dose: 20.0 mg/kg/injection, schedule: Q01DX009 (ip), vehicle: distilled water + Tween-80",114 % of control
COC(=O)CCC(NC(=O)c1cccc(N(C)C=O)c1)C(=O)OC (configuration not stated),T/C,[1],104 % of control
same,T/C,[2],100 % of control
same,T/C,[3],115 % of control
same,T/C,[4],100 % of control
same,T/C,[5],104 % of control
same,T/C,[6],96 % of control
Nc1nc2c(ncn2-c2ccc(OCCNC(=O)Nc3ccc(S(=O)(=O)F)cc3)cc2)c(=O)[nH]1,T/C,[1],95 % of control
same,T/C,[3],94 % of control
same,T/C,[5],94 % of control
CC(=O)OCC1OC(n2ccc(O)cc2=O)C(O)C1O (configuration not stated),T/C,"endpoint: median survival time, dose: 44.0 mg/kg/injection, schedule: Q01DX009 (ip), vehicle: saline + alcohol",160 % of control
same,T/C,"endpoint: median survival time, dose: 67.0 mg/kg/injection, schedule: Q01DX009 (ip), vehicle: saline + alcohol",169 % of control
same,T/C,"endpoint: median survival time, dose: 100.0 mg/kg/injection, schedule: Q01DX009 (ip), vehicle: saline + alcohol",172 % of control
same,T/C,"endpoint: median survival time, dose: 150.0 mg/kg/injection, schedule: Q01DX009 (ip), vehicle: saline + alcohol",174 % of control
Cc1c(Cl)cccc1NC(=O)COc1ccc(Cl)cc1Cl,T/C,[2],94 % of control
same,T/C,[4],98 % of control
same,T/C,[6],96 % of control
CCCCC1CCCCC1,T/C,[2],95 % of control
same,T/C,[4],100 % of control
same,T/C,[6],90 % of control
O=Cc1ccc(O)c2ncccc12,T/C,"endpoint: mean survival time, dose: 75.0 mg/kg/injection, schedule: Q01DX001 (ip), vehicle: other",101 % of control
same,T/C,"endpoint: mean survival time, dose: 150.0 mg/kg/injection, schedule: Q01DX001 (ip), vehicle: other",95 % of control
same,T/C,"endpoint: mean survival time, dose: 300.0 mg/kg/injection, schedule: Q01DX001 (ip), vehicle: other",110 % of control
O=C(O)CSc1nc2ccccc2s1,T/C,"endpoint: mean survival time, dose: 25.0 mg/kg/injection, schedule: Q01DX009 (ip), vehicle: saline with Tween-80",96 % of control
same,T/C,"endpoint: mean survival time, dose: 50.0 mg/kg/injection, schedule: Q01DX009 (ip), vehicle: saline with Tween-80",95 % of control
same,T/C,"endpoint: mean survival time, dose: 100.0 mg/kg/injection, schedule: Q01DX009 (ip), vehicle: saline with Tween-80",97 % of control
same,T/C,[2],93 % of control
same,T/C,[4],94 % of control
same,T/C,[6],96 % of control
C=CC#N,T/C,"endpoint: mean survival time, dose: 12.5 mg/kg/injection, schedule: Q04DX003 (ip), vehicle: saline with Tween-80",105 % of control
same,T/C,"endpoint: mean survival time, dose: 25.0 mg/kg/injection, schedule: Q04DX003 (ip), vehicle: saline with Tween-80",102 % of control
same,T/C,"endpoint: mean survival time, dose: 50.0 mg/kg/injection, schedule: Q04DX003 (ip), vehicle: saline with Tween-80",108 % of control
C=C(Cl)C(C)(C)C,T/C,"endpoint: mean survival time, dose: 25.0 mg/kg/injection, schedule: Q01DX001 (ip), vehicle: saline",98 % of control
same,T/C,"endpoint: mean survival time, dose: 50.0 mg/kg/injection, schedule: Q01DX001 (ip), vehicle: saline",104 % of control
same,T/C,"endpoint: mean survival time, dose: 100.0 mg/kg/injection, schedule: Q01DX001 (ip), vehicle: saline",100 % of control
OC1CCCN(c2c3ccccc3nc3ccccc23)C1 (configuration not stated),T/C,"endpoint: mean survival time, dose: 100.0 mg/kg/injection, schedule: Q04DX002 (ip), vehicle: saline with Tween-80",100 % of control
same,T/C,"endpoint: mean survival time, dose: 200.0 mg/kg/injection, schedule: Q04DX002 (ip), vehicle: saline with Tween-80",92 % of control
same,T/C,"endpoint: mean survival time, dose: 400.0 mg/kg/injection, schedule: Q04DX002 (ip), vehicle: saline with Tween-80",100 % of control
COCCC1(CN2c3ccccc3Sc3ccc(Cl)cc32)CCN(C)C1 (configuration not stated),T/C,"endpoint: mean survival time, dose: 100.0 mg/kg/injection, schedule: Q04DX003 (ip), vehicle: saline",102 % of control
same,T/C,"endpoint: mean survival time, dose: 200.0 mg/kg/injection, schedule: Q04DX003 (ip), vehicle: saline",105 % of control
c1ccc2c(c1)CCc1ccccc1N2,T/C,[1],100 % of control
same,T/C,[3],100 % of control
same,T/C,[5],91 % of control
